Source: ChEMBL document CHEMBL1145891, “Design and synthesis of trans-3-(2-(4-((3-(3-(5-methyl-1,2,4-oxadiazolyl))- phenyl)carboxamido)cyclohexyl)ethyl)-7-methylsulfonyl-2,3,4,5-tetrahydro-1H-3-benzazepine (SB-414796): a potent and selective dopamine D3 receptor antagonist” (J Med Chem, 2003)

Columns and labels:
D(3) dopamine receptor = D(3) dopamine receptor (Homo sapiens, UniProt P35462); assay: Binding affinity against human Dopamine receptor D3 expressed in CHO cells by using [125I]iodosulpiride as radioligand; assay type: cell-based
D(2) dopamine receptor = D(2) dopamine receptor (Homo sapiens, UniProt P14416); assay: Binding affinity against human Dopamine receptor D2 expressed in CHO cells by using [125I]iodosulpiride as radioligand; assay type: cell-based
Chain of D(2) dopamine receptor (P14416 whole entry): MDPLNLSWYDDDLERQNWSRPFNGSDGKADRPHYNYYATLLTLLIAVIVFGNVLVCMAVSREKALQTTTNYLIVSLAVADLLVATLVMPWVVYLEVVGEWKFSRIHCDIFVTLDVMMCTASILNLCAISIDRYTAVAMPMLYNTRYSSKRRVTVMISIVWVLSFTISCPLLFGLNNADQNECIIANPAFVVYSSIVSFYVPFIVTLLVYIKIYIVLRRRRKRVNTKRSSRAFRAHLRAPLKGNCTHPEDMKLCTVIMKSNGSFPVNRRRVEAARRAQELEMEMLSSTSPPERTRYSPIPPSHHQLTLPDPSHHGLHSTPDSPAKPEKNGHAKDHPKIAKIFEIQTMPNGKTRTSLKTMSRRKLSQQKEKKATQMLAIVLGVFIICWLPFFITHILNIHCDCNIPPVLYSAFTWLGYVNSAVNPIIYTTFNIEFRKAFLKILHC

Chain of D(3) dopamine receptor (P35462 whole entry): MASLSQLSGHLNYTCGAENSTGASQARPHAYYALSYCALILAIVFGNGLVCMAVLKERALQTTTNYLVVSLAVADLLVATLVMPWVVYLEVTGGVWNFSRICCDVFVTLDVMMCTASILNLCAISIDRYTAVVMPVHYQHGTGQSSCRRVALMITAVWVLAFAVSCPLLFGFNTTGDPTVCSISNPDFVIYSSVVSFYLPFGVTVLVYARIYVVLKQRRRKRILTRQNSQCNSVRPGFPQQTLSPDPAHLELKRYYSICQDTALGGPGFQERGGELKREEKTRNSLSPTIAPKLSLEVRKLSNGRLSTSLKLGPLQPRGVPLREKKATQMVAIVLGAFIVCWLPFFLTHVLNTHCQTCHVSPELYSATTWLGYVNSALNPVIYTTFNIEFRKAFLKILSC

Row | Structure (SMILES) | Ki (D(3) dopamine receptor) [µM] | Ki (D(2) dopamine receptor) [µM]
1 | CS(=O)(=O)Oc1ccc2c(c1)CCN(CC[C@H]1CC[C@H](NC(=O)c3cccc4ncccc34)CC1)CC2 | 0.002 | 0.2
2 | CS(=O)(=O)Oc1ccc2c(c1)CCN(CC[C@H]1CC[C@H](NC(=O)/C=C/c3ccc(F)cc3)CC1)CC2 | 0.000794 | 0.0631
3 | CS(=O)(=O)c1ccc2c(c1)CCN(CC[C@H]1CC[C@H](NC(=O)/C=C/c3ccc(C#N)cc3)CC1)CC2 | 0.002 | 0.126
4 | CS(=O)(=O)c1ccc2c(c1)CCN(CC[C@H]1CC[C@H](NC(=O)/C=C/c3cc(F)cc(F)c3)CC1)CC2 | 0.002 | 0.251
5 | Cc1nc(-c2cccc(C(=O)N[C@H]3CC[C@H](CCN4CCc5ccc(OS(C)(=O)=O)cc5CC4)CC3)c2)no1 | 0.00251 | 0.2
6 | CS(=O)(=O)c1ccc2c(c1)CCN(CC[C@H]1CC[C@H](NC(=O)/C=C/c3ccccc3F)CC1)CC2 | 0.00126 | 0.126
7 | CS(=O)(=O)c1ccc2c(c1)CCN(CC[C@H]1CC[C@H](NC(=O)/C=C/c3cccc(C#N)c3)CC1)CC2 | 0.002 | 0.158
8 | Cc1cnc(-c2cccc(C(=O)N[C@H]3CC[C@H](CCN4CCc5ccc(S(C)(=O)=O)cc5CC4)CC3)c2)o1 | 0.00794 | 0.631
9 | Cc1ncc(-c2cccc(C(=O)N[C@H]3CC[C@H](CCN4CCc5ccc(OS(C)(=O)=O)cc5CC4)CC3)c2)o1 | 0.00126 | 0.2
10 | Cc1cc(-c2cccc(C(=O)N[C@H]3CC[C@H](CCN4CCc5ccc(S(C)(=O)=O)cc5CC4)CC3)c2)on1 | 0.00398 | 0.501
11 | Cc1cc(C(=O)N[C@H]2CC[C@H](CCN3CCc4ccc(OS(C)(=O)=O)cc4CC3)CC2)c2ccccc2n1 | 0.02 | 0.631
12 | CS(=O)(=O)Oc1ccc2c(c1)CCN(CC[C@H]1CC[C@H](NC(=O)c3cccc(-c4ncccn4)c3)CC1)CC2 | 0.002 | 0.316
13 | Cn1nccc1-c1cccc(C(=O)N[C@H]2CC[C@H](CCN3CCc4ccc(S(C)(=O)=O)cc4CC3)CC2)c1 | 0.00316 | 0.501
14 | CS(=O)(=O)Oc1ccc2c(c1)CCN(CC[C@H]1CC[C@H](NC(=O)/C=C/c3ccccc3F)CC1)CC2 | 0.00126 | –
15 | CS(=O)(=O)Oc1ccc2c(c1)CCN(CC[C@H]1CC[C@H](NC(=O)/C=C/c3cccc(F)c3)CC1)CC2 | 0.00126 | –
16 | CS(=O)(=O)Oc1ccc2c(c1)CCN(CC[C@H]1CC[C@H](NC(=O)c3cccc(-n4cccc4)c3)CC1)CC2 | 0.00316 | 0.251

Row | Structure (SMILES) | Ki (D(3) dopamine receptor) [µM] | Ki (D(2) dopamine receptor) [µM]
17 | CS(=O)(=O)c1ccc2c(c1)CCN(CC[C@H]1CC[C@H](NC(=O)/C=C/c3cccc(F)c3)CC1)CC2 | 0.00158 | 0.126
18 | Cc1cc(-c2cccc(C(=O)N[C@H]3CC[C@H](CCN4CCc5ccc(OS(C)(=O)=O)cc5CC4)CC3)c2)on1 | 0.002 | 0.158
19 | CS(=O)(=O)c1ccc2c(c1)CCN(CC[C@H]1CC[C@H](NC(=O)/C=C/c3ccccc3C#N)CC1)CC2 | 0.00158 | 0.158
20 | Cc1ccc2c(C(=O)N[C@H]3CC[C@H](CCN4CCc5ccc(S(C)(=O)=O)cc5CC4)CC3)cccc2n1 | 0.00398 | 0.316
21 | COc1ccccc1/C=C/C(=O)N[C@H]1CC[C@H](CCN2CCc3ccc(OS(C)(=O)=O)cc3CC2)CC1 | 0.00126 | 0.1
22 | Cc1ccc2c(C(=O)N[C@H]3CC[C@H](CCN4CCc5ccc(OS(C)(=O)=O)cc5CC4)CC3)cccc2n1 | 0.00126 | 0.2
23 | CS(=O)(=O)c1ccc2c(c1)CCN(CC[C@H]1CC[C@H](NC(=O)/C=C/c3ccc(F)cc3)CC1)CC2 | 0.001 | 0.0794
24 | CS(=O)(=O)Oc1ccc2c(c1)CCN(CC[C@H]1CC[C@H](NC(=O)c3cccc4ccccc34)CC1)CC2 | 0.00251 | 0.316
25 | Cc1ccc2c(C(=O)N[C@H]3CC[C@H](CCN4CCc5ccc(S(C)(=O)=O)cc5CC4)CC3)ccc(F)c2n1 | 0.00316 | 0.794
26 | Cc1ncc(-c2cccc(C(=O)N[C@H]3CC[C@H](CCN4CCc5ccc(S(C)(=O)=O)cc5CC4)CC3)c2)o1 | 0.00631 | 0.631
27 | COc1ccc(/C=C/C(=O)N[C@H]2CC[C@H](CCN3CCc4ccc(OS(C)(=O)=O)cc4CC3)CC2)cc1 | 0.001 | 0.0316
28 | Cc1cnc(-c2cccc(C(=O)N[C@H]3CC[C@H](CCN4CCc5ccc(OS(C)(=O)=O)cc5CC4)CC3)c2)o1 | 0.00316 | 0.316
29 | CS(=O)(=O)c1ccc2c(c1)CCN(CC[C@H]1CC[C@H](NC(=O)/C=C/c3c(F)cccc3F)CC1)CC2 | 0.00251 | 0.398
30 | COc1cccc(/C=C/C(=O)N[C@H]2CC[C@H](CCN3CCc4ccc(OS(C)(=O)=O)cc4CC3)CC2)c1 | 0.002 | 0.0631
31 | Cc1coc(-c2cccc(C(=O)N[C@H]3CC[C@H](CCN4CCc5ccc(OS(C)(=O)=O)cc5CC4)CC3)c2)n1 | 0.00316 | 0.2
